The results in this text go back to patent US9157904B2, “Wnt antagonists and methods of treatment and screening” (OncoMed Pharmaceuticals, Inc., priority 2010, dated 2015).

A short description of series [1]: Pharmacokinetics of FZD8-Fc in rat. Conditions: tail vein, plasma. It counts as in vivo, Sprague Dawley rats.
Experimental: The pharmacokinetics of FZD8-Fc (54F03) were assessed in rats in a two week pharmacokinetics (PK) study using doses of 2 mg/kg and 10 mg/kg. Sprague Dawley rats, five males in each group, were dosed with FZD8-Fc via the tail vein at 2 mg/kg or 10 mg/kg and followed for two weeks with samples collected at the time points 1, 24, 48, 72, 96, 168, 240, and 336 hours. At each time point, 1 ml of blood was collected into potassium-EDTA tubes and centrifuged. The plasma supernatants were collected and frozen until the samples were analyzed.
The level of FZD8-Fc fusion protein present in the plasma at each time point was quantified and the half-life of FZD8-Fc was calculated for the two doses.
In another series the test system is PN4 pancreas tumor. The series can be described thus: PN4 pancreas tumor xenograft, tumor growth. It counts as in vivo, NOD/SCID mice. The note with it: FZD8-Fc 15 mg/kg i.p. twice weekly, vs control antibody. How it is done: The anti-tumor activity of FZD8-Fc (54F03) was evaluated in the PN4 pancreas tumor xenograft model. Dissociated OMP-PN4 cells (50,000 per animal) were injected subcutaneously into 6-8 week old male NOD/SCID mice. Tumor growth was monitored weekly and tumor measurements were initiated once tumors were palpable. On day 50, mice with average tumor volumes of 137 mm^3 were randomized into 4 groups of 10 animals each. Animals were injected with either control antibody, FZD8-Fc (15 mg/kg), gemcitabine (2 mg/kg) or a combination of FZD8-Fc and gemcitabine. Administration of the FZD8-Fc and gemcitabine was performed via injection into the intra-peritoneal cavity, once weekly (gemcitabine) or twice weekly (FZD8-Fc). Tumors were measured twice a week and tumor volume was determined using the formula ½(a×b^2); where a=length, and b=breadth. Data are expressed as mean and mean±S.E.M. Group means were compared using Student's two-tailed, unpaired t test.

The next series concerns PN4 pancreatic tumors. The series is described as follows: In vivo limiting dilution assay of treated PN4 tumors. The note with it: day 75 after injection of 30, 90, 270 cells, control 7 out of 30. Set-up: species or system NOD/SCID mice. From the text: Limiting dilution assays (LDA) can be used to assess the effect of therapeutic agents on solid tumor cancer stem cells and on the tumorigenicity of a tumor comprising the cancer stem cells. Such assays can be used to determine the frequency of cancer stem cells in tumors from animals treated with the FZD8-Fc fusion protein or other agent and to compare that frequency to the frequency of cancer stem cells in tumors from control animals. Control and treated tumors from the PN4 xenograft study described above were harvested at the end of the study (day 85). The tumors were processed and dissociated into single cells. […] The human cells in the suspension were harvested, counted, and stained for cell surface markers and appropriate cell doses (30, 90, and 270 cells) in FACS buffer were mixed in a 1:1 mixture with Matrigel and injected subcutaneously in NOD/SCID mice (10 mice per cell dose per treatment group). […] At the desired time point, the percentage of mice with detectable tumors was determined in all groups injected with FZD8-Fc-treated tumor cells and compared to the percentage of mice with detectable tumors in the controls. For example, the number of mice injected with 125 control antibody-treated tumor cells that have detectable tumors is determined and compared to the number of mice injected with 125 FZD8-Fc treated tumor cells that have detectable tumors. […]

The test system of the next series is PN13 tumors. The series can be described thus: Muc16 immunohistochemistry of treated PN13 tumors. Conditions: vs control antibody. It counts as in vivo, NOD/SCID mice. How it is done:
The cell differentiation capability of FZD8-Fc was also evaluated in the OMP-PN13 pancreas tumor xenograft model. Dissociated OMP-PN13 cells (50,000 per animal) were injected subcutaneously into 6-8 week old male NOD/SCID mice. Tumor growth was monitored weekly and tumor measurements were initiated once tumors were palpable. On day 40 mice with average tumor volume of 114 mm^3 were randomized into 4 groups of 10 animals each. Animals were injected with either control antibody or FZD8-Fc (15 mg/kg). Administration of the FZD8-Fc and control antibody was performed via injection into the intraperitoneal cavity, twice weekly. After 19 days of treatment, the tumors were excised and immunohistochemistry analysis was performed using standard techniques. Briefly, tumors were fixed in formalin, embedded in paraffin, and tumor sections of 4 μm thickness were cut. After deparaffinization and hydration, the tumor sections were subjected to an antigen retrieval process in Tris buffer (pH 9.5). Sections were incubated with hydrogen peroxide (Sigma-Aldrich, St Louis, Mo.) for 10 minutes to block endogenous peroxidases. […]
Tumor sections from PN13 tumors treated with control antibody or FZD8-Fc were obtained and treated as described above. […] The bound antibody was detected using the immunohistochemistry protocol described above.

In the next series the test system is C28 tumors. The series can be described thus: CK20 immunohistochemistry of treated C28 tumors. It counts as in vivo, NOD/SCID mice. The note with it: vs control antibody. As for the experimental part:
Control and treated tumors from the C28 xenograft study described above (Example 6) were harvested at the end of the study. The tumors were excised and immunohistochemistry analysis was performed using standard techniques. Briefly, tumors were fixed in formalin, embedded in paraffin, and tumor sections of 4 um thickness were cut. After deparaffinization and hydration, the tumor sections were subjected to an antigen retrieval process in Tris buffer (pH 9.5). Sections were incubated with hydrogen peroxide (Sigma-Aldrich, St Louis, Mo.) for 10 minutes to block endogenous peroxidases. Anti-CK20 (clone Ks20.8, Dako, Carpinteria, Calif.) antibody in blocking buffer at 1:200 dilution (3% NHS, 1% BSA, 0.1% Tween-20, in PBS) was added to each section and incubated for 1 hour. Slides were rinsed 3 times in PBST for 5 minutes each. Anti-mouse secondary antibody conjugated with HRP (ImmPRESS™ anti-mouse Ig, Vector Laboratories Inc., Burlingame, Calif.) was added to the slides and incubated for 30 minutes. After multiple washes with PBST, Vector Nova Red substrate (Vector Laboratories Inc., Burlingame, Calif.) was added for localization of CK20 antigen.

As for “54F03: Fri domain of human FZD8 fused to human IgG1 Fc with GRA linker; SEQ ID NO:1”, the half-life (as a rule, the time needed for the level to fall by half in the phase considered) worked out at 163 h in series [1] (2 mg/kg) and 157 h in series [1] (10 mg/kg). For the same substance, in the series on PN4 pancreas tumor, the “reduction in tumor growth” value is reported as 66%. In the series on PN4 pancreatic tumors, the tumor take rate is on record as 3 mice out of 30 mice. The “cells expressing Muc16” value with PN13 tumors is on record as “increase in cells expressing Muc16”. Also, the “cells expressing CK20” value in the series on C28 tumors is recorded as “increase in cells expressing CK20”.
